Calls of active or inactive are those of the source.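 The calls were made as follows: active = IC50 against T. cruzi CYP51 below a set limit; inactive = the rest.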
Each compound was assayed against Sterol 14-alpha demethylase (Trypanosoma cruzi (strain CL Brener)) (UniProt Q7Z1V1) (assay: T. cruzi sterol 14-alpha demethylase inhibition – biochemical, recombinant enzyme, mechanism study for T. cruzi antiparasitic project, dose response (AID 1159558;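 also: enzyme in bacterial membranes with Anopheles gambiae CYP reductase and cytochrome b5 partners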)). Settings: recombinant T. cruzi CYP51, BOMCC fluorescence.
Sterol 14-alpha demethylase (Trypanosoma cruzi (strain CL Brener)), sequence (Q7Z1V1 whole entry, looked up): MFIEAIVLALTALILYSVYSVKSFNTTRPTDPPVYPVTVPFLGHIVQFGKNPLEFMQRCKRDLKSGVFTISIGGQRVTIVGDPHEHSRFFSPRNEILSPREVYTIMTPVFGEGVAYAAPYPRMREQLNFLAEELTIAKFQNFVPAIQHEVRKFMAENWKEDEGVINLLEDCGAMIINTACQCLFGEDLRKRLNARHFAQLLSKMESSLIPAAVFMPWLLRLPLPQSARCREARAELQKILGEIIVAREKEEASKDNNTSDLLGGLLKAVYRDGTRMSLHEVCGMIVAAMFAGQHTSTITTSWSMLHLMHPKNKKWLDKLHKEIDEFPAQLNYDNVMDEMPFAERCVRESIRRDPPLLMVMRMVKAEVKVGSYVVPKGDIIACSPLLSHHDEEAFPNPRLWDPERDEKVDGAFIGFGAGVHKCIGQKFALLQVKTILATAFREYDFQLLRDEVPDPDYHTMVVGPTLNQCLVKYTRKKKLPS

Compound | IC50
CS(=O)(=O)c1cccc(-c2cnc(N)c3c(-c4ccc(CO)cc4)csc23)c1 | 3.2 µM
O=C(CSc1ccc(F)cc1)N[C@@H](Cc1cnc[nH]1)C(=O)NCCc1ccccc1 | 0.079 µM
O=C(NCc1nnc2n1CCCCC2)c1ccc(-c2ccc(F)cc2)o1 | 79 µM
CC(C)(C)Nc1nc(Nc2ccc3c(c2)CS(=O)(=O)C3)nc2[nH]ccc12 | 25 µM
COc1ccc2c(Cl)c(C(=O)N3CCC3)sc2c1Cl | > 100 µM (inactive)
N#Cc1ccc(C(=O)Nc2cccc(-c3cccc(CN4CCC(O)CC4)c3)c2)cc1 | 25 µM
O=C(CCCNC(=O)c1ccc(Cl)cc1)Nc1nc(-c2ccccn2)cs1 | 3.2 µM
COc1ccc(Nc2nccc(N(C)c3n[nH]c4c(F)cccc34)n2)cc1S(C)(=O)=O | 32 µM
Nc1nc(-c2ccccn2)nc(-n2nc(-c3ccccc3)cc2N)n1 | > 100 µM (inactive)
COc1ccccc1-n1c(SCC(=O)Nc2ccc3c(c2)OCO3)nc2c(c1=O)SCC2 | 63 µM
Clc1ccc(OCCN2CCCCC2c2cccnc2)c(Cl)c1 (stereo not given) | 0.063 µM
O=C(Nc1nc(-c2ccccn2)cs1)N1C[C@H]2C[C@@]2(c2ccccc2)C1 | 40 µM
O=C(Nc1ncc([N+](=O)[O-])s1)C1CC1 | > 100 µM (inactive)
O=C(Cn1cnc([N+](=O)[O-])n1)Nc1ccc(Cl)cc1C(=O)c1ccccc1 | 10 µM
COc1ccc2nc(N(Cc3cccnc3)C(=O)C3CCC3)sc2c1 | 0.063 µM
CCCN1CCN(Cc2ccc(S(=O)(=O)Nc3cccc(C)c3)cc2)CC1 | > 100 µM (inactive)
CCCCN(C(=O)c1ccc(NC(=O)C(C)C)cc1)c1ccccc1 | 13 µM
COc1ccc(Cl)cc1CC(=O)Nc1n[nH]c(-c2ccccn2)n1 | > 100 µM (inactive)
CN(C)c1ccc(N)cc1CN(CC1CCCO1)S(C)(=O)=O (stereo not given) | > 100 µM (inactive)
Cc1nc(-c2nc(NCc3ccc(Cl)cc3)c3cccnc3c2O)n[nH]1 | 16 µM
O=C(Nc1nccs1)c1ccccc1Cn1cc([N+](=O)[O-])cn1 | > 100 µM (inactive)
COc1cc(NC(=O)Nc2cccc(CNC(=O)OC3CCCCC3)c2)ccc1-c1cnco1 | 25 µM
CCc1cccc(CC)c1-n1c(SCC(=O)NC(=O)NCc2ccco2)nnc1-c1cccnc1 | 1 µM
CC(C)C[C@H](NC(=O)c1ccc(-c2ccccc2)o1)C(=O)NC1(C#N)CC1 | > 100 µM (inactive)
O=C(CN1CCC2(O)CCCCC2C1c1ccc2c(c1)OCO2)Nc1ccc(Cl)cc1Cl (stereo not given) | 13 µM
NC(=O)c1cc(F)ccc1Nc1nc(NC2CCC(O)CC2)ncc1Cl (stereo not given) | 32 µM
c1ccc(Nc2nc3ccccc3[nH]2)nc1 | > 100 µM (inactive)

Compound | IC50
Cc1nnnn1-c1cccc(C(=O)N2CCC[C@@]3(C)c4ncncc4CCC23)c1 (stereo not given in full) | 25 µM
O=c1[nH]ccc2ccc(-c3ccncc3)cc12 | 0.016 µM
O=C(CC1(O)C(=O)N(Cc2ccccc2)c2ccc(Br)cc21)c1cccnc1 (stereo not given) | 4 µM
O=C1OCc2ccc(Nc3nccc(-c4cnn5ncccc45)n3)cc21 | > 100 µM (inactive)
Clc1ccc(C(CC2CCCCO2)Cn2cncn2)c(Cl)c1 (stereo not given) | 0.25 µM
CNC(=O)Oc1ccc(C(=O)NCc2ccccc2)cc1OC(=O)NC | > 100 µM (inactive)
Cc1ccccc1NS(=O)(=O)c1ccc2[nH]cc(C(=O)NC3CCCCC3)c(=O)c2c1 | 10 µM
N#Cc1ccc(Br)cc1[N+](=O)[O-] | 50 µM
O=C(CSc1nnc2ccc(-c3ccc(F)cc3)nn12)N1CCCCC1 | > 100 µM (inactive)
COc1ccccc1C(=O)Nc1nnc(-c2ccc3c(c2)OCO3)s1 | > 100 µM (inactive)
CS(=O)(=O)NC1CCC(Nc2ncc(Br)c(Nc3ccccc3C(N)=O)n2)CC1 (stereo not given) | > 100 µM (inactive)
COc1ccc2nccc(NC(=O)C3(OC)CCN(CC(O)c4ccc5c(c4)OCCO5)CC3)c2n1 (stereo not given) | 1 µM
CCc1cccc(-n2nc(OCC(=O)NC3CCCC3)c3cccnc32)c1 | > 100 µM (inactive)
Cn1nc([N+](=O)[O-])nc1N1CCCCC1 | > 100 µM (inactive)
NC(=O)c1ncc(N[C@@H]2CCCNC2)nc1Nc1cccc(Cl)c1 | > 100 µM (inactive)
O=C(c1ccccc1)N1CCC(C(=O)N2CCC(Oc3ccccc3Cl)CC2)CC1 | 20 µM
N#Cc1cc(N2CCCC2=O)ccc1Sc1ccccc1CO | 20 µM
Nc1nccc(-c2csc(Nc3ccc(Cl)cc3)n2)n1 | 1.3 µM
Cc1ccc(Nc2nc(-c3ccccn3)cc(N3CCCC(O)C3)n2)cc1 (stereo not given) | 25 µM
N#Cc1ccc(S(=O)(=O)N2CCC3(CCN(c4ccccc4)C3=O)CC2)cc1 | > 100 µM (inactive)
O=c1[nH]c(NCCCNCc2cc(Br)cc(Br)c2)nc2ccsc12 | 32 µM
COc1ccc(C(C)N(C)c2ncc3c(N)nc(N)nc3n2)cc1F (stereo not given) | > 100 µM (inactive)
CC(=O)Nc1cccc(Nc2ncnc3nc[nH]c23)c1 | > 100 µM (inactive)
Cc1cc2cc(CNc3ccc4c(c3)OCO4)c(=O)n(CCO)c2cc1C | 10 µM
COc1cc(-c2noc(CC#N)n2)ccc1OC(F)F | 100 µM
Cc1ccc(Nc2nc(C3CCCN3Cc3ccn[nH]3)cs2)nc1 (stereo not given) | 6.3 µM
CCC1Oc2cc(S(=O)(=O)N(C)CC(=O)N3CCc4ccccc4C3)c(C)cc2NC1=O (stereo not given) | 0.79 µM

Compound | IC50
Cc1cc(NC(=O)c2ccc([N+](=O)[O-])s2)ccc1Br | 10 µM
O=[N+]([O-])c1ccc(-c2nnn(-c3cccnc3)n2)o1 | 4 µM
O=C(Cc1ccc2c(c1)CCC2)Nc1n[nH]c(-c2ccccn2)n1 | 2.5 µM
O=C1CN(Cc2ccco2)C2CS(=O)(=O)CC2N1c1ccc(Cl)cc1 (stereo not given) | > 100 µM (inactive)
CN(C)S(=O)(=O)c1cccc(C(=O)Nc2nc(-c3ccccn3)cs2)c1 | 32 µM
COc1ccc(S(=O)(=O)Nc2ccccc2OC)cc1NC(=O)CCCc1c[nH]c2ccccc12 | > 100 µM (inactive)
Cc1cc(C)c(C#N)c(SCC(=O)c2ccc3c(c2)OCO3)n1 | > 100 µM (inactive)
CCCN(Cc1ccc(OC)c(OC)c1)Cc1cc(=O)c2c(C)cc(C)cc2[nH]1 | > 100 µM (inactive)
O=C(NNC(=O)c1ccccn1)c1ccc(-c2ccccc2)cc1 | 32 µM
O=C(NCCc1ccccn1)C(c1cn[nH]c1)N1CCN(c2ccc(Cl)c(Cl)c2)CC1 (stereo not given) | 0.13 µM
CN(Cc1nc2ccccc2s1)C(=O)C=Cc1cc2ccccc2o1 | 0.16 µM
Cc1nc2nc(C)c(Cc3ccc(C(C)C)cc3)c(=O)n2[nH]1 | > 100 µM (inactive)
O=C(c1ccc(Cl)cc1)c1ccc(OC(=O)N2CCOCC2)cc1 | 40 µM
COc1ccc(OC)c2c(=O)c(Cc3ccccc3)c(C)[nH]c12 | > 100 µM (inactive)
COc1ccc([N+](=O)[O-])cc1NC(=O)Nc1cccc(Cl)c1 | > 100 µM (inactive)
COc1ccc(-c2cnc(NC(=O)c3cc(-c4ccccn4)n[nH]3)n2C)cc1 | 16 µM
COc1ccc2nccc([C@H](O)CN3CC[C@H](NC(=O)c4ccc(Br)cc4)[C@@H](O)C3)c2n1 | 6.3 µM
O=C(CCCn1cnc([N+](=O)[O-])n1)Nc1cccc(Cl)c1 | 50 µM
Cc1ccc(NC(=O)c2ccnc(N3CCCC3)c2)cc1-c1ccsc1C(N)=O | 1.3 µM
CCCc1cc(N)nc(-c2cc(CCC)cc(N)n2)c1 | > 100 µM (inactive)
Cc1cc2cncn2c(C2CCCCN2C(=O)c2cccs2)n1 (stereo not given) | 0.1 µM
COc1ccc(-c2csc(NC(=O)c3ccc([N+](=O)[O-])s3)n2)cc1 | > 100 µM (inactive)
COc1ccc(CN(C)Cc2ccncc2)cc1-c1ccc(S(=O)(=O)NC2CCC2)s1 | 0.079 µM
CCCCc1cc(Nc2cc(C3CCC3)[nH]n2)nc(N2CCC2C(N)=O)n1 (stereo not given) | > 100 µM (inactive)
NCc1ccc2c(Cl)cc(Cl)c(O)c2n1 | 40 µM
OCC1CCCCN1c1cc(-c2ccccn2)nc(Nc2ccccc2)n1 (stereo not given) | 79 µM
CCCCNc1nccc(-c2c(-c3ccc(F)cc3)nn3c(N4CCOCC4)cccc23)n1 | > 100 µM (inactive)

Compound | IC50
C=CC[C@@H]1CC=C[C@@H](C)N1C(=O)CCc1nnc(-c2ccc3c(c2)OCO3)o1 | 40 µM
O=C(CSc1ccc(-c2ccccn2)nn1)Nc1ccc(Cl)cc1 | > 100 µM (inactive)
Cc1ccccc1OCC(=O)N1CCCN(c2cccnn2)CC1 | 0.079 µM
CC(C)(C)C(Cn1ccnc1)NC(=O)c1ccc2nc(C3CC3)oc2c1 (stereo not given) | 0.1 µM
COc1ccc(S(=O)(=O)Nc2ccc(C(=O)Nc3nc(-c4ccccn4)cs3)cc2)cc1 | 0.4 µM
CN(CC1CCCO1)S(=O)(=O)c1ccc(C(=O)Nc2nc(-c3ccccn3)cs2)cc1 (stereo not given) | 7.9 µM
CC(CNS(=O)(=O)c1ccc(OC(F)F)cc1)c1ccc(NC(=O)c2ccncc2)cc1 (stereo not given) | 0.05 µM
O=C(Nc1nc(-c2ccc(F)cc2)cs1)c1ccc([N+](=O)[O-])s1 | 50 µM
CN(C)CCN(C)Cc1ccc(Cl)cc1NS(=O)(=O)c1ccc(Cl)c(Cl)c1 | 32 µM
COc1ccc(S(=O)(=O)NC(C)C)cc1Nc1ncc(-c2cccc(F)c2)cn1 | > 100 µM (inactive)
O=C(NCC1CCCCC1)c1cc(=O)c2ccccc2o1 | > 100 µM (inactive)
CNS(=O)(=O)c1ccccc1Nc1nc(Nc2ccnn2C)ncc1Cl | 32 µM
CCC(=O)Nc1ccccc1C(=O)Nc1ccccn1 | > 100 µM (inactive)
O=C1CN(C(=O)c2cccc(Nc3ncc(-c4ccc5c(c4)OCO5)cn3)c2)CCN1 | 25 µM
C=CCN(Cc1cccs1)C(=O)CSc1nnc(-c2ccc3c(c2)OCO3)o1 | 7.9 µM
NCC(Cc1ccccc1)NC(=O)c1cnc(-c2c[nH]c3ncccc23)s1 (stereo not given) | 1 µM
Cc1nn(C2CCS(=O)(=O)C2)c(C)c1CN(C)C(=O)C=Cc1sc2ccccc2c1Cl (stereo not given) | 0.032 µM
CCCCCNC(=O)c1c[nH]c2ccc(S(=O)(=O)N(C)c3ccc(OCC)cc3)cc2c1=O | 1.6 µM
O=C(CN(Cc1ccccn1)Cc1ccccn1)NCc1ccc2c(c1)OCO2 | 100 µM
Cc1c(C(=O)NCCCCn2ccnc2)oc2c(C)cccc12 | 0.1 µM
Cn1cncc1CN1CCC2(CC1)COC(Cc1ccccc1)C2 (stereo not given) | 1 µM
CC(c1cc(Cl)cc(Cl)c1)N(C)c1ncc2c(N)nc(N)nc2n1 (stereo not given) | 40 µM
N#Cc1cccc(Nc2nccc(N3CCC(NS(=O)(=O)c4cccc(C#N)c4)CC3)n2)c1 | 7.9 µM
CCN(CC)c1ccc(S(=O)(=O)N(CC)CC)c2nonc12 | 25 µM
